Laboratory results: patent publication USRE38425E1, “Semicarbazones having CNS activity and pharmaceutical preparations containing same” (University of Saskatchewan Technologies, Inc., priority 1995, dated 2004)
Values joined by “and” are separate entries in the source; they are usually repeats but may differ in a detail not shown here. Identical values can stand only once. Like-named read-outs stand apart in the source and are kept apart here.

Experiments:
mice [1] = experiment: MES screen after intraperitoneal injection in mice; format: in vivo; details: intraperitoneal injection in mice, time t (h) per compound as in the table; for ED50: Mus musculus, ip, read-out: MES screen ED50
mice [2] = details: intraperitoneal injection in mice; time t (h) per compound as in the table
mice [3] = test system: mice
rats [4] = experiment: MES screen after oral administration to rats; details: for MES screen 0.25 h: number of rats out of 4 which were protected / MES screen 0.5 h: number of rats out of 4 which were protected / MES screen 1 h: number of rats out of 4 which were protected / MES screen 2 h: number of rats out of 4 which were protected / MES screen 4 h: number of rats out of 4 which were protected / MES screen ED50 / MES screen: number of rats out of 4 which were protected: oral administration to rats; for MES screen ED50: time t (h) per compound as in the table; for ED50: Rattus norvegicus, po, read-out: MES screen ED50 (mg/kg)
rats [5] = experiment: neurotoxicity screen after oral administration to rats; details: oral administration to rats; time t (h) per compound as in the table
epileptic chicken = epileptic chicken model (intermittent photic stimulation); format: in vivo; details: convulsions induced by intermittent photic stimulation
Text: Two series of compounds were examined with the aim of observing whether oxygen or sulfur is a preferable spacer atom between the two aryl rings and also to compare the ED50 figures with those obtained in the rat oral and mouse intraperitoneal screens.

rats [6] = experiment: scPTZ screen after oral administration to rats
Procedure: (§1) Initially doses of 50 mg/kg of the semicarbazones were administered.

kindled rat = kindled rat test (corneal kindled rat screen); format: in vivo, rats; details: for ED50: Rattus norvegicus, read-out: ED50 (dose required to reduce seizures from stage 5 to stage 3 or less); for protection in the corneal kindled rat screen: in vivo
Text: Particularly preferred compounds according to the present invention are 4-(4′-fluorophenoxy)benzaldehyde semicarbazone and 4-(thiophenoxy)benzaldehyde semicarbazone. […] Incidentally, the kindled rat screen is described by R. J. Racine in “Modification of Seizure Activity by Electrical Stimulation. II. Motor Seizure”, Electroencephalogr.Clin.Neurophysiol., 1972, 32, 281-294, and by G. Skeen et al. In “Development of Kindled Seizures Following Electrical Stimulation via the Cornea”, Soc.Neurosci., 1990, 16(1), 307; the disclosures of which are incorporated herein by reference.
The kindled rat test was undertaken by reported procedures (as indicated above). Compound 4b was administered orally and the animals challenged with electrical stimuli 2h later. The ED50 is the dose required to reduce seizures from stage 5 to stage 3 or less and these stages are described as follows namely stage 1 is mouth and facial clonus, stage 2 is stage 1 plus head nodding, stage 3 is stage 2 plus forelimb clonus, stage 4 is stage 3 plus rearing and stage 5 is stage 4 plus repeated rearing and falling.

in vivo = details: rat, po
Procedure: as §1

[7] = intraperitoneal injection in mice, time t (h) per compound as in the table
[8] = doses indicated in Table 1, after 0.5 h
[9] = doses indicated in Table 1, after 1 h
[10] = doses indicated in Table 1, after 2 h
[11] = doses indicated in Table 1, after 4 h

Cc1ccc(Oc2ccc(C=NNC(N)=O)cc2)cc1 [Compound 4f]
MES screen ED50 (mice [1]): 14.65 mg/kg | acPTZ screen ED50 (mice [2]): 88.55 mg/kg | neurotoxicity screen TD50 (mice [3]; [7]): 203.73 mg/kg | MES screen 0.25 h: number of rats out of 4 which were protected (rats [4]; dose 50 mg/kg, 0.25 h): 3 | MES screen 0.5 h: number of rats out of 4 which were protected (rats [4]; dose 50 mg/kg, 0.5 h): 4 | MES screen 1 h: number of rats out of 4 which were protected (rats [4]; dose 50 mg/kg, 1 h): 4 | MES screen 2 h: number of rats out of 4 which were protected (rats [4]; dose 50 mg/kg, 2 h): 4 | MES screen 4 h: number of rats out of 4 which were protected (rats [4]; dose 50 mg/kg, 4 h): 4 | MES screen ED50 (rats [4]): 3.43 mg/kg | neurotoxicity screen TD50 (rats [5]): >500 mg/kg

NC(=O)NN=Cc1ccc(Sc2ccccc2)cc1 [Compound 15a]
MES screen ED50 (mice [1]): 15.62 mg/kg | ED50 in the epileptic chicken model (epileptic chicken): 2.5 mg/kg | acPTZ screen ED50 (mice [2]): >46 mg/kg | neurotoxicity screen TD50 (mice [3]; [7]): 181.00 mg/kg | MES screen: number of rats out of 4 which were protected (rats [4]; dose 50 mg/kg, 0.5 h): 4 | MES screen: number of rats out of 4 which were protected (rats [4]; dose 50 mg/kg, 1 h): 4 | MES screen: number of rats out of 4 which were protected (rats [4]; dose 50 mg/kg, 2 h): 4 | MES screen: number of rats out of 4 which were protected (rats [4]; dose 50 mg/kg, 4 h): 4 | neurotoxicity screen TD50 (rats [5]): >496 mg/kg

Cc1ccccc1Oc1ccc(C=NNC(N)=O)cc1 [Compound 5n]
MES screen 0.5 h: number of rats out of 4 which were protected (rats [4]; dose 12.5 mg/kg, 0.5 h): 4 | MES screen 1 h: number of rats out of 4 which were protected (rats [4]; dose 12.5 mg/kg, 1 h): 3 | MES screen 2 h: number of rats out of 4 which were protected (rats [4]; dose 12.5 mg/kg, 2 h): 4 | MES screen 4 h: number of rats out of 4 which were protected (rats [4]; dose 12.5 mg/kg, 4 h): 4 | MES screen ED50 (rats [4]): 5.65 mg/kg | number of rats protected in the scPTZ screen (rats [6]; [8]): 1/4 | number of rats protected in the scPTZ screen (rats [6]; [9]): 1/4 | number of rats protected in the scPTZ screen (rats [6]; [10]): 1/4 | neurotoxicity screen TD50 (rats [5]): >500 mg/kg

O=C1NC(=O)C(c2ccccc2)(c2ccccc2)N1 [Phenytoin, reference compound]
ED50 (mice [1]): 6.32 mg/kg | MES screen ED50 (mice [1]): 6.48 mg/kg | ED50 (kindled rat): > 100 mg/kg | acPTZ screen ED50 (mice [2]): >50 mg/kg | neurotoxicity screen TD50 (mice [3]; [7]): 41.23 mg/kg and 42.8 mg/kg | toxicity screen 0.5 h: minimum dose whereby bioactivity was demonstrated in half or more of the mice (mice [3]; mouse, in vivo, 0.5 h): 100 mg/kg | toxicity screen: minimum dose whereby bioactivity was demonstrated in half or more of the mice (mice [3]; mouse, in vivo, 0.5 h): 100 mg/kg | toxicity screen 4 h: minimum dose whereby bioactivity was demonstrated in half or more of the mice (mice [3]; mouse, in vivo, 4 h): 100 mg/kg | toxicity screen: minimum dose whereby bioactivity was demonstrated in half or more of the mice (mice [3]; mouse, in vivo, 4 h): 100 mg/kg | TD50 (in vivo): > 500 mg/kg | ED50 (rats [4]): 23.2 mg/kg

NC(=O)NN=Cc1ccc(Oc2ccc(F)cc2)cc1 [4-(4′-fluorophenoxy)benzaldehyde semicarbazone]
protection in the corneal kindled rat screen (kindled rat): afford protection

NC(=O)NN=Cc1ccc(Sc2ccc(F)cc2)cc1 [Compound 16a]
MES screen ED50 (mice [1]): 12.37 mg/kg | ED50 in the epileptic chicken model (epileptic chicken): 1.5 mg/kg | acPTZ screen ED50 (mice [2]): >120 mg/kg | neurotoxicity screen TD50 (mice [3]; [7]): 88.00 mg/kg | MES screen: number of rats out of 4 which were protected (rats [4]; dose 12.5 mg/kg, 0.25 h): 1 | MES screen: number of rats out of 4 which were protected (rats [4]; dose 12.5 mg/kg, 0.5 h): 3 | MES screen: number of rats out of 4 which were protected (rats [4]; dose 12.5 mg/kg, 1 h): 4 | MES screen: number of rats out of 4 which were protected (rats [4]; dose 12.5 mg/kg, 2 h): 4 | MES screen: number of rats out of 4 which were protected (rats [4]; dose 12.5 mg/kg, 4 h): 4 | neurotoxicity screen TD50 (rats [5]): 183.05 mg/kg

CC(C)(C)c1ccc(Oc2ccc(C=NNC(N)=O)cc2)cc1 [Compound 5s]
MES screen ED50 (mice [1]): 8.87 mg/kg | acPTZ screen ED50 (mice [2]): >150.00 mg/kg | neurotoxicity screen TD50 (mice [3]; [7]): 105.92 mg/kg | MES screen 1 h: number of rats out of 4 which were protected (rats [4]; dose 12.5 mg/kg, 1 h): 4 | MES screen 2 h: number of rats out of 4 which were protected (rats [4]; dose 12.5 mg/kg, 2 h): 4 | MES screen 4 h: number of rats out of 4 which were protected (rats [4]; dose 12.5 mg/kg, 4 h): 4 | MES screen ED50 (rats [4]): 1.68 mg/kg | neurotoxicity screen TD50 (rats [5]): >500 mg/kg

NC(=O)NN=Cc1ccc(Sc2ccc(Br)cc2)cc1 [Compound 16c]
MES screen ED50 (mice [1]): 24.37 mg/kg | ED50 in the epileptic chicken model (epileptic chicken): 1.5 mg/kg | acPTZ screen ED50 (mice [2]): >200 mg/kg | neurotoxicity screen TD50 (mice [3]; [7]): 122.57 mg/kg | MES screen: number of rats out of 4 which were protected (rats [4]; dose 12.5 mg/kg, 0.25 h): 0 | MES screen: number of rats out of 4 which were protected (rats [4]; dose 12.5 mg/kg, 0.5 h): 1 | MES screen: number of rats out of 4 which were protected (rats [4]; dose 12.5 mg/kg, 1 h): 3 | MES screen: number of rats out of 4 which were protected (rats [4]; dose 12.5 mg/kg, 2 h): 4 | MES screen: number of rats out of 4 which were protected (rats [4]; dose 12.5 mg/kg, 4 h): 4

NC(=O)N1c2ccccc2C=Cc2ccccc21 [Carbamazepine, reference compound]
ED50 (mice [1]): 9.85 mg/kg | ED50 (kindled rat): 28.9 mg/kg | acPTZ screen ED50 (mice [2]): >50 mg/kg | toxicity screen 0.5 h: minimum dose whereby bioactivity was demonstrated in half or more of the mice (mice [3]; mouse, in vivo, 0.5 h): 100 mg/kg | toxicity screen: minimum dose whereby bioactivity was demonstrated in half or more of the mice (mice [3]; mouse, in vivo, 0.5 h): 100 mg/kg | toxicity screen 4 h: minimum dose whereby bioactivity was demonstrated in half or more of the mice (mice [3]; mouse, in vivo, 4 h): 300 mg/kg | toxicity screen: minimum dose whereby bioactivity was demonstrated in half or more of the mice (mice [3]; mouse, in vivo, 4 h): 300 mg/kg | neurotoxicity screen TD50 (mice [3]; mouse, in vivo, ip): 47.8 mg/kg | ED50 (rats [4]): 3.57 mg/kg | neurotoxicity screen TD50 (rats [5]): 361 mg/kg

NC(=O)NN=Cc1ccc(Oc2ccc(I)cc2)cc1 [Compound 4e]
MES screen 0.25 h: number of rats out of 4 which were protected (rats [4]; dose 50 mg/kg, 0.25 h): 3 | MES screen 0.5 h: number of rats out of 4 which were protected (rats [4]; dose 50 mg/kg, 0.5 h): 4 | MES screen 1 h: number of rats out of 4 which were protected (rats [4]; dose 50 mg/kg, 1 h): 4 | MES screen 2 h: number of rats out of 4 which were protected (rats [4]; dose 50 mg/kg, 2 h): 4 | MES screen 4 h: number of rats out of 4 which were protected (rats [4]; dose 50 mg/kg, 4 h): 4 | number of rats protected in the scPTZ screen (rats [6]; [8]): 1/4 | number of rats protected in the scPTZ screen (rats [6]; [9]): 1/4 | number of rats protected in the scPTZ screen (rats [6]; [11]): 1/4

CCCCc1ccc(Oc2ccc(C=NNC(N)=O)cc2)cc1 [Compound 5r]
MES screen ED50 (mice [1]): 13.36 mg/kg | acPTZ screen ED50 (mice [2]): 86.93 mg/kg | neurotoxicity screen TD50 (mice [3]; [7]): 131.27 mg/kg | MES screen 0.5 h: number of rats out of 4 which were protected (rats [4]; dose 12.5 mg/kg, 0.5 h): 2 | MES screen 1 h: number of rats out of 4 which were protected (rats [4]; dose 12.5 mg/kg, 1 h): 2 | MES screen 2 h: number of rats out of 4 which were protected (rats [4]; dose 12.5 mg/kg, 2 h): 3 | MES screen 4 h: number of rats out of 4 which were protected (rats [4]; dose 12.5 mg/kg, 4 h): 4 | MES screen ED50 (rats [4]): 3.21 mg/kg | number of rats protected in the scPTZ screen (rats [6]; [9]): 1/4 | number of rats protected in the scPTZ screen (rats [6]; [10]): 2/4 | number of rats protected in the scPTZ screen (rats [6]; [11]): 1/4 | neurotoxicity screen TD50 (rats [5]): >3.22 mg/kg

NC(=O)NN=Cc1ccc(Sc2ccc(Cl)cc2)cc1 [Compound 16b]
MES screen ED50 (mice [1]): 16.22 mg/kg | ED50 in the epileptic chicken model (epileptic chicken): 1.0 mg/kg | acPTZ screen ED50 (mice [2]): >120 mg/kg | neurotoxicity screen TD50 (mice [3]; [7]): 53.18 mg/kg | MES screen: number of rats out of 4 which were protected (rats [4]; dose 50 mg/kg, 0.25 h): 1 | MES screen: number of rats out of 4 which were protected (rats [4]; dose 50 mg/kg, 0.5 h): 4 | MES screen: number of rats out of 4 which were protected (rats [4]; dose 50 mg/kg, 1 h): 4 | MES screen: number of rats out of 4 which were protected (rats [4]; dose 50 mg/kg, 2 h): 4 | MES screen: number of rats out of 4 which were protected (rats [4]; dose 50 mg/kg, 4 h): 4

CC(=NNC(N)=O)c1ccc(Oc2ccc(F)cc2)cc1 [Compound 13b]
MES screen ED50 (mice [1]): 11.63 mg/kg | acPTZ screen ED50 (mice [2]): >80 mg/kg | neurotoxicity screen TD50 (mice [3]; [7]): 60.74 mg/kg | MES screen: number of rats out of 4 which were protected (rats [4]; dose 12.5 mg/kg, 0.5 h): 4 | MES screen: number of rats out of 4 which were protected (rats [4]; dose 12.5 mg/kg, 1 h): 4 | MES screen: number of rats out of 4 which were protected (rats [4]; dose 12.5 mg/kg, 2 h): 4 | MES screen: number of rats out of 4 which were protected (rats [4]; dose 12.5 mg/kg, 4 h): 4 | MES screen ED50 (rats [4]): 3.37 mg/kg | neurotoxicity screen TD50 (rats [5]): 108.77 mg/kg

NC(=O)NN=Cc1ccc(Sc2ccccc2)cc1 [4-(thiophenoxy)benzaldehyde semicarbazone]
protection in the corneal kindled rat screen (kindled rat): afford protection
